Source: patent US20120010173A1 (SEPS PHARMA N.V., priority 2009, published 2012)

Assays:
[1] = Solubility of fosfluconazole derivatives in pharmaceutical solvents (Table 2); assay type: physicochemical; details: thermodynamic from solid
Procedure: The solubility determination method used was as follows: a suspension of 6 mg of the tested fosfluconazole derivative in 500 μl of the applicable pharmaceutical solvent was rotatively shaken for 24 hours at 800 rpm at 25° C. The saturated fosfluconazole derivative solution was filtered (0.45 μm) and 150 μl of the filtrate was diluted in dimethylsulfoxide (50 μl DMSO). This solution was assayed, each assay being carried out in three-fold, by measurement with Liquid Chromatography-Mass Spectrometry (LCMS, 1 μl and 10 μl injection). Standards were prepared by dissolving the corresponding fosfluconazole derivative in DMSO (1 mg/ml). To determine the solubility, four aliquots (0.5, 1, 2, 4 μl) of the standard solution were injected using the same LCMS conditions as for the above exemplary samples.

[2] = Chemical stability in pharmaceutical solvents (weight % remaining in solution, LCMS); assay type: physicochemical
Procedure: (§1) Table 4 provides the chemical stability data in some pharmaceutical solvents, expressed as the weight percentage (% w/w) of the final fosfluconazole derivative produced and characterized in example 1 that remained in solution after a certain period of time. The test was carried out twice, and the remaining weight % was determined by Liquid Chromatography-Mass Spectrometry (LCMS).
as §1, with “5” for “4”, “solvents at 25° C.,” for “solvents,”, “2” for “1”
as §1, with “6” for “4”, “solvents at 25° C.,” for “solvents,”, “3” for “1”
as §1, with “7” for “4”, “4” for “1”
as §1, with “8” for “4”, “5” for “1”
as §1, with “9” for “4”, “6” for “1”
as §1, with “10” for “4”, “14” for “1”

[3] = aqueous with cosolvent or surfactant or cyclodextrin, H2O/Cremophor RH 40 (80/20), 25° C.
[4] = aqueous with cosolvent or surfactant or cyclodextrin, H2O/Kleptose HPB (60/40), 25° C.
[5] = aqueous with cosolvent or surfactant or cyclodextrin, H2O/Vitamin E TPGS (90/10), 25° C.
[6] = aqueous with cosolvent or surfactant or cyclodextrin, H2O/polysorbate 80 (80/20), 25° C.
[7] = oil or lipid, Miglyol 812, 25° C.
[8] = organic solvent or mixture, PEG 400, 25° C.
[9] = water (pH 2), aqueous buffer, H2O (pH = 2), 25° C.
[10] = water (pH 7), aqueous buffer, H2O (pH = 7), 25° C.
[11] = water (pH 10), aqueous buffer, H2O (pH = 10), 25° C.
[12] = H2O/Kleptose HPB (60/40), 4 hours
[13] = H2O/Kleptose HPB (60/40), 1 day
[14] = H2O/Kleptose HPB (60/40), 2 days
[15] = H2O/Kleptose HPB (60/40), 7 days
[16] = H2O/Kleptose HPB (60/40), 14 days

Row | solubility at 24 h [1, 3] [µg/mL] | solubility at 24 h [1, 4] [µg/mL] | solubility at 24 h [1, 5] [µg/mL] | solubility at 24 h [1, 6] [µg/mL] | solubility at 24 h [1, 7] [µg/mL] | solubility at 24 h [1, 8] [µg/mL] | solubility at 24 h [1, 9] [µg/mL] | solubility at 24 h [1, 10] [µg/mL] | solubility at 24 h [1, 11] [µg/mL] | weight percentage that remained in solution ([2]; H2O (pH = 7), 4 hours) [% w/w] | weight percentage that remained in solution ([2]; H2O (pH = 7), 1 day) [% w/w] | weight percentage that remained in solution ([2]; H2O (pH = 7), 2 days) [% w/w] | weight percentage that remained in solution ([2]; H2O (pH = 7), 7 days) [% w/w] | weight percentage that remained in solution ([2]; H2O (pH = 7), 14 days) [% w/w] | weight percentage that remained in solution ([2]; H2O (pH = 10), 4 hours) [% w/w] | weight percentage that remained in solution ([2]; H2O (pH = 10), 1 day) [% w/w] | weight percentage that remained in solution ([2]; H2O (pH = 10), 2 days) [% w/w] | weight percentage that remained in solution ([2]; H2O (pH = 10), 7 days) [% w/w] | weight percentage that remained in solution ([2]; H2O (pH = 10), 14 days) [% w/w] | weight percentage that remained in solution [2, 12] [% w/w] | Compound | further results
1 | > 10000 | > 10000 | > 10000 | > 10000 | 2600 | > 10000 | > 10000 | > 10000 | > 10000 | 94.8 | 94.7 | 95.0 | 94.8 | 95.1 | 94.8 | 94.8 | 95.0 | 95.0 | 95.2 | 95.0 | CCCCCCCCCOCCOP(=O)([O-])OC(Cn1cncn1)(Cn1cncn1)c1ccc(F)cc1F.[Na+] [Example 3, sodium 2-(2,4-difluorophenyl)-1,3-di(1H-1,2,4-triazol-1-yl)propan-2-yl 2-(nonyloxy)ethyl phosphate] | weight percentage that remained in solution ([2]; H2O (pH = 2), 4 hours): 94.8 % w/w; weight percentage that remained in solution ([2]; H2O (pH = 2), 1 day): 94.6 % w/w; weight percentage that remained in solution ([2]; H2O (pH = 2), 2 days): 95.0 % w/w; weight percentage that remained in solution ([2]; H2O (pH = 2), 7 days): 95.0 % w/w; weight percentage that remained in solution ([2]; H2O (pH = 2), 14 days): 95.0 % w/w; weight percentage that remained in solution [2, 13]: 94.9 % w/w; weight percentage that remained in solution [2, 14]: 94.7 % w/w; weight percentage that remained in solution [2, 15]: 95.0 % w/w; weight percentage that remained in solution [2, 16]: 95.2 % w/w; weight percentage that remained in solution ([2]; PEG 400, 4 hours): 95.0 % w/w; weight percentage that remained in solution ([2]; PEG 400, 1 day): 94.9 % w/w; weight percentage that remained in solution ([2]; PEG 400, 2 days): 95.0 % w/w; weight percentage that remained in solution ([2]; PEG 400, 7 days): 95.0 % w/w; weight percentage that remained in solution ([2]; PEG 400, 14 days): 95.1 % w/w
2 | > 10000 | > 10000 | > 10000 | > 10000 | > 10000 | 9000 | < 1000 | 9900 | > 10000 | 95.2 | 95.3 | 95.5 | 95.6 | 95.4 | 45.5 | 44.8 | 41.3 | 39.4 | 37.1 | 95.1 | CCCCCCCCCC(=O)OCC(COP(=O)([O-])OC(Cn1cncn1)(Cn1cncn1)c1ccc(F)cc1F)OC(=O)CCCCCCCCC.[Na+] (centres unmarked) [Example 4, sodium 2,3-bis(decanoyloxy)propyl 2-(2,4-difluorophenyl)-1,3-di(1H-1,2,4-triazol-1-yl)propan-2-yl phosphate] | weight percentage that remained in solution [2, 13]: 95.3 % w/w; weight percentage that remained in solution [2, 14]: 95.3 % w/w; weight percentage that remained in solution [2, 15]: 94.2 % w/w; weight percentage that remained in solution [2, 16]: 87.7 % w/w; weight percentage that remained in solution ([2]; PEG 400, 4 hours): 96.8 % w/w; weight percentage that remained in solution ([2]; PEG 400, 1 day): 95.9 % w/w; weight percentage that remained in solution ([2]; PEG 400, 2 days): 96.7 % w/w; weight percentage that remained in solution ([2]; PEG 400, 7 days): 96.6 % w/w; weight percentage that remained in solution ([2]; PEG 400, 14 days): 97.3 % w/w
3 | > 10000 | > 10000 | > 10000 | > 10000 | 1200 | > 10000 | > 10000 | > 10000 | > 10000 | 99.1 | 99.3 | 99.2 | 99.2 | 99.4 | 99.3 | 99.3 | 99.4 | 99.3 | 99.9 | 99.5 | CCCCCCCCCOP(=O)([O-])OC(Cn1cncn1)(Cn1cncn1)c1ccc(F)cc1F.[Na+] [Example 14, sodium 2-(2,4-difluorophenyl)-1,3-di(1H-1,2,4-triazol-1-yl)propan-2-yl nonyl phosphate] | weight percentage that remained in solution ([2]; H2O (pH = 2), 4 hours): 99.0 % w/w; weight percentage that remained in solution ([2]; H2O (pH = 2), 1 day): 99.1 % w/w; weight percentage that remained in solution ([2]; H2O (pH = 2), 2 days): 99.2 % w/w; weight percentage that remained in solution ([2]; H2O (pH = 2), 7 days): 99.2 % w/w; weight percentage that remained in solution ([2]; H2O (pH = 2), 14 days): 99.6 % w/w; weight percentage that remained in solution [2, 13]: 99.3 % w/w; weight percentage that remained in solution [2, 14]: 99.2 % w/w; weight percentage that remained in solution [2, 15]: 99.3 % w/w; weight percentage that remained in solution [2, 16]: 100.0 % w/w; weight percentage that remained in solution ([2]; PEG 400, 4 hours): 99.3 % w/w; weight percentage that remained in solution ([2]; PEG 400, 1 day): 99.3 % w/w; weight percentage that remained in solution ([2]; PEG 400, 2 days): 99.4 % w/w; weight percentage that remained in solution ([2]; PEG 400, 7 days): 99.4 % w/w; weight percentage that remained in solution ([2]; PEG 400, 14 days): 100.0 % w/w
4 | > 10000 | 4200 | 7400 | 8300 | 400 | > 10000 | > 10000 | 6800 | 7500 | 99.6 | 99.6 | 54.7 | 99.6 | 99.6 | 99.8 | 100.0 | 99.7 | 100.0 | 100.0 | 99.3 | C[N+](C)(C)CCOP(=O)([O-])OC(Cn1cncn1)(Cn1cncn1)c1ccc(F)cc1F [Example 1, 2-(2,4-difluorophenyl)-1,3-di(1H-1,2,4-triazol-1-yl)propan-2-yl 2-(trimethylammonio)-ethyl phosphate] | weight percentage that remained in solution ([2]; H2O (pH = 2), 4 hours): 99.9 % w/w; weight percentage that remained in solution ([2]; H2O (pH = 2), 1 day): 100.0 % w/w; weight percentage that remained in solution ([2]; H2O (pH = 2), 2 days): 99.4 % w/w; weight percentage that remained in solution ([2]; H2O (pH = 2), 7 days): 99.4 % w/w; weight percentage that remained in solution ([2]; H2O (pH = 2), 14 days): 99.2 % w/w; weight percentage that remained in solution [2, 13]: 98.8 % w/w; weight percentage that remained in solution [2, 14]: 98.8 % w/w; weight percentage that remained in solution [2, 15]: 98.6 % w/w; weight percentage that remained in solution [2, 16]: 99.1 % w/w; weight percentage that remained in solution ([2]; PEG 400, 4 hours): 99.8 % w/w; weight percentage that remained in solution ([2]; PEG 400, 1 day): 100.0 % w/w; weight percentage that remained in solution ([2]; PEG 400, 2 days): 99.8 % w/w; weight percentage that remained in solution ([2]; PEG 400, 7 days): 99.9 % w/w; weight percentage that remained in solution ([2]; PEG 400, 14 days): 100.0 % w/w
